Test results published in ChEMBL document CHEMBL1909046, “DrugMatrix in vitro pharmacology data”.
Where a SMILES comes first, the peptide text is derived from it. Bridges are numbered along the chain shown (N, C = ends). [ ]: non-standard residue; d: D form. The star is where a group is joined. Ileψ(thiazoline)Cys = CC[C@H](C)[C@H](N)C1=N[C@H](C(=O)*)CS1; dOrn = NCCC[C@@H](N)C(=O)O

How the values were obtained:
[1] = target: T1, Cholecystokinin receptor type A (Homo sapiens, UniProt P32238); format: cell membranes, Membrane; conditions: 1321-n1; further: in other assays of this panel Not Active means under 50% inhibition at 10 µM
T1 sequence (P32238 whole entry): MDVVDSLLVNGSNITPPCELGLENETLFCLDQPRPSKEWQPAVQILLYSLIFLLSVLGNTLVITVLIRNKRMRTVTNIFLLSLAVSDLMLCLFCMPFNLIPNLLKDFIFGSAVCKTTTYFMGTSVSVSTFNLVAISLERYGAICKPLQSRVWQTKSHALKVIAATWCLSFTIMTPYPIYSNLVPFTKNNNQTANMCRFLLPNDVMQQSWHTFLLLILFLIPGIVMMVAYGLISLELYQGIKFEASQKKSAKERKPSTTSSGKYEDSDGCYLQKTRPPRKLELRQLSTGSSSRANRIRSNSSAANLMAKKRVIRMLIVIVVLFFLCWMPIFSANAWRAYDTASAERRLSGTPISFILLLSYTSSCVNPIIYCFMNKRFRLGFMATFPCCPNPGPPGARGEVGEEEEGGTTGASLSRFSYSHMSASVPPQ

[2] = target: Mitogen-activated protein kinase 3 (Homo sapiens, UniProt P27361); assay: DRUGMATRIX: Protein Serine/Threonine Kinase, ERK1 enzyme inhibition (substrate: Myelin Basic Protein); parameters: species or system Escherichia coli; conditions: Not Active = under 50% inhibition at 10 µM
Sequence of Mitogen-activated protein kinase 3 (P27361 whole entry): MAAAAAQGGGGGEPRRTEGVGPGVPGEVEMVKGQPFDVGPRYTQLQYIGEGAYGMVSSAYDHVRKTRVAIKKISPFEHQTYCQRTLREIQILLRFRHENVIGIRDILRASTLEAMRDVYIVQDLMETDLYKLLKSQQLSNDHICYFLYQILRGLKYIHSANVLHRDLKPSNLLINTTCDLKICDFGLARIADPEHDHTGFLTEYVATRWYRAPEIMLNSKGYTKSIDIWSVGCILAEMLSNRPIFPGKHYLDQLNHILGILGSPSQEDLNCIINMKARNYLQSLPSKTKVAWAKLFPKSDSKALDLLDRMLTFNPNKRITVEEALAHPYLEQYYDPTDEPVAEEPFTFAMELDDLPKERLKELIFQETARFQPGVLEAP

[3] = DRUGMATRIX: GABAA, Chloride Channel, TBOB radioligand binding (ligand: [3H] TBOB); format: cell membranes, Rattus norvegicus, Wistar, Cerebral cortex, Membrane; conditions: Not Active = under 50% inhibition at 10 µM
[4] = target: T2, Progesterone receptor (Bos taurus, UniProt Q690N0); assay: DRUGMATRIX: Progesterone radioligand binding (ligand: [3H] R-5020); format: tissue-based, Uterus; conditions: Not Active = under 50% inhibition at 10 µM
T2 sequence (Q690N0 whole entry): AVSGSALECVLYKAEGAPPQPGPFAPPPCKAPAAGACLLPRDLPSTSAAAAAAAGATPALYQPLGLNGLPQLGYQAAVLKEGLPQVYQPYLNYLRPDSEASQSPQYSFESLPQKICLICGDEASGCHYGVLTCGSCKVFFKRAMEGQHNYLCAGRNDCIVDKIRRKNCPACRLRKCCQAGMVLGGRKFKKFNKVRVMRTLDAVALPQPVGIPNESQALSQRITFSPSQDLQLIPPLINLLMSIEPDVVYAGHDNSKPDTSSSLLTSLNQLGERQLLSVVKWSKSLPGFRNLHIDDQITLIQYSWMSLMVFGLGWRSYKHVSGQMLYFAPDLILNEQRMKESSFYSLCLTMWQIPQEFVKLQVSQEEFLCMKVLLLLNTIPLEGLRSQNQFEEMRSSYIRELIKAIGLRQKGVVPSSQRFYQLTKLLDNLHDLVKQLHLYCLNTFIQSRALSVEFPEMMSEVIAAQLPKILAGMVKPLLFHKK

[5] = target: T3, B2 bradykinin receptor (Homo sapiens, UniProt P30411); format: cell membranes, Membrane; conditions: chem-1; further: in other assays of this panel Not Active means under 50% inhibition at 10 µM
T3 sequence (P30411 whole entry): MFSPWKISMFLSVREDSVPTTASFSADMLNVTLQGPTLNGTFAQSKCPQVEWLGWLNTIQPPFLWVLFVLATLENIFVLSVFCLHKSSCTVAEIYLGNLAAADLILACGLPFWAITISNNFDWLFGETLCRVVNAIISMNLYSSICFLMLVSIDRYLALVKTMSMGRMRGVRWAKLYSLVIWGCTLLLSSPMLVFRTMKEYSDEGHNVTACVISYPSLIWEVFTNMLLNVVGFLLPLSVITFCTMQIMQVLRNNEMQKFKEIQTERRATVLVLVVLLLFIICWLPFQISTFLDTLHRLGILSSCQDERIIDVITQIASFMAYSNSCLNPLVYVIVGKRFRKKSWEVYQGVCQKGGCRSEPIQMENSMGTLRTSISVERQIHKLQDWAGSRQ

[6] = target: Nitric oxide synthase 1 (Rattus norvegicus, UniProt P29476); format: tissue-based, Cerebellum; further: in other assays of this panel Not Active means under 50% inhibition at 10 µM
Sequence of Nitric oxide synthase 1 (P29476 whole entry): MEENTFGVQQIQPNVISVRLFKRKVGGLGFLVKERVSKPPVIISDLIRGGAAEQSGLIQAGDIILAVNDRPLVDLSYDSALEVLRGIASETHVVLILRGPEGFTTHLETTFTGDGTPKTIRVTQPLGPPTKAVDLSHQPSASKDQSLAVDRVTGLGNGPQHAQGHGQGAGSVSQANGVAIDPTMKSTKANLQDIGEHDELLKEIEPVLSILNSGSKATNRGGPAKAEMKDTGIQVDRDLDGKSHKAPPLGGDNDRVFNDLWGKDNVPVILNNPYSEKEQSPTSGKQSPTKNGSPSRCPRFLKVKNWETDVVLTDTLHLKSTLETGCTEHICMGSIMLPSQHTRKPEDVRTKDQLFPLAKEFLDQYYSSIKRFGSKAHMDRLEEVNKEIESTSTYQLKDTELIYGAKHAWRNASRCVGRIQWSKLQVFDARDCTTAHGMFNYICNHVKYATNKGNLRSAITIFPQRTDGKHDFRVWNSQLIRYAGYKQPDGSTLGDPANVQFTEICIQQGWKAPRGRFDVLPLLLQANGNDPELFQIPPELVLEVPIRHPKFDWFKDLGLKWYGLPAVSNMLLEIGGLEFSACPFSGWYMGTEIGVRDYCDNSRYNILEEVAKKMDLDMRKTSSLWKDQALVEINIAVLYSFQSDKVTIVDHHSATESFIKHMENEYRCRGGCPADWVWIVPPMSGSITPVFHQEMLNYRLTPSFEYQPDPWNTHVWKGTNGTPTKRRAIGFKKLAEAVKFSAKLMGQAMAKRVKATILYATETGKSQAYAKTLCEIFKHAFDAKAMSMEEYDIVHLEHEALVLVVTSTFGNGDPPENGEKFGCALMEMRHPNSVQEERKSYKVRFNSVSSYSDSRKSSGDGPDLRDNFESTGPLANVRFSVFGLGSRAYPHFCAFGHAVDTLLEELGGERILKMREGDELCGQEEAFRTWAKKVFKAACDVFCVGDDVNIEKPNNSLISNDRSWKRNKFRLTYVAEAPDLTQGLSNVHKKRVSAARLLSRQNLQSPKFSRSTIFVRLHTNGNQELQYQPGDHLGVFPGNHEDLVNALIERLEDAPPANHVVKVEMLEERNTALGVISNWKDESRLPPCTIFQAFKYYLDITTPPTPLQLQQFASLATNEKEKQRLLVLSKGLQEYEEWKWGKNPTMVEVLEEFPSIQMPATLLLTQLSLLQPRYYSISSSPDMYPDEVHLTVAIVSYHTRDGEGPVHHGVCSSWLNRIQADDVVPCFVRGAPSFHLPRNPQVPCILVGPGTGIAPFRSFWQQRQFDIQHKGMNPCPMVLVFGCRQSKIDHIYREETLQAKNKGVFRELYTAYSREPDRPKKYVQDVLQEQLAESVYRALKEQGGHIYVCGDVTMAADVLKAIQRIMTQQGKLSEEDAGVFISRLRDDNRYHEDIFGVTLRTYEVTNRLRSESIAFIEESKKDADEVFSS

[7] = target: T4, Cytochrome P450 2A6 (Homo sapiens, UniProt P11509); conditions: bti-tn-5b1-4; further: in other assays of this panel Not Active means under 50% inhibition at 10 µM
T4 sequence (P11509 whole entry): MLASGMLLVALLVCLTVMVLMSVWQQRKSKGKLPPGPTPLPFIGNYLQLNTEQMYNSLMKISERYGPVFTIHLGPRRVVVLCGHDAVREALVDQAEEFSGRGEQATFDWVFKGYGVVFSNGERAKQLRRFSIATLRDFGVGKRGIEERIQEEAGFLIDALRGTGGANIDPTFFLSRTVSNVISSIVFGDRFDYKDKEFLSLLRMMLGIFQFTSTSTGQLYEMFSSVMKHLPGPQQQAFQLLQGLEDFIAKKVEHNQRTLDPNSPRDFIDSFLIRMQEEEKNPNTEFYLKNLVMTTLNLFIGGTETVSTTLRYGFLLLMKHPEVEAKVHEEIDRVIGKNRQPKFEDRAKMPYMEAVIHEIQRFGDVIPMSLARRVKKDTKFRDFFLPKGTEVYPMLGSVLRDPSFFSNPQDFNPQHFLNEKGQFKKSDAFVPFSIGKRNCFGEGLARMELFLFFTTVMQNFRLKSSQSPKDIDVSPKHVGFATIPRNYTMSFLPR

c1ccc2c(c1)cc1ccc3cccc4ccc2c1c34
Not Active: IC50 [1] | IC50 [2] | IC50 [3] | Ki [3] | IC50 [4] | IC50 [5] | IC50 [6] | IC50 [7] | Ki [7]

CC=CC(=O)N(CC)c1ccccc1C
Not Active: IC50 [1] | IC50 [2] | IC50 [3] | Ki [3] | IC50 [4] | IC50 [5] | IC50 [6] | IC50 [7] | Ki [7]

CC(/C=C1\SC(=S)N(CC(=O)O)C1=O)=C\c1ccccc1
Not Active: IC50 [1] | IC50 [2] | IC50 [3] | Ki [3] | IC50 [4] | IC50 [5] | IC50 [6] | IC50 [7] | Ki [7]

CCCCCCCCCc1ccc(O)cc1 [4-NONYLPHENOL]
Not Active: IC50 [1] | IC50 [2] | IC50 [3] | Ki [3] | IC50 [4] | IC50 [5] | IC50 [6] | IC50 [7] | Ki [7]

CCCSc1ccc2nc(NC(=O)OC)[nH]c2c1 [ALBENDAZOLE]
Not Active: IC50 [1] | IC50 [2] | IC50 [3] | Ki [3] | IC50 [4] | IC50 [5] | IC50 [6] | IC50 [7] | Ki [7]

Cc1[nH]cnc1CN1CCc2c(c3ccccc3n2C)C1=O [ALOSETRON]
Not Active: IC50 [1] | IC50 [2] | IC50 [3] | Ki [3] | IC50 [4] | IC50 [5] | IC50 [6] | IC50 [7] | Ki [7]

CCOC(=O)OC(C)OC1=C(C(=O)Nc2ccccn2)N(C)S(=O)(=O)c2ccccc21 (stereo not given) [AMPIROXICAM]
Not Active: IC50 [1] | IC50 [2] | IC50 [3] | Ki [3] | IC50 [4] | IC50 [5] | IC50 [6] | IC50 [7] | Ki [7]

N=C(N)NCCCCNC(=N)N.O=S(=O)(O)O [ARCAINE SULFATE]
Not Active: IC50 [1] | IC50 [2] | IC50 [3] | Ki [3] | IC50 [4] | IC50 [5] | IC50 [6] | IC50 [7] | Ki [7]

Cn1cnc([N+](=O)[O-])c1Sc1ncnc2nc[nH]c12 [AZATHIOPRINE]
Not Active: IC50 [1] | IC50 [2] | IC50 [3] | Ki [3] | IC50 [4] | IC50 [5] | IC50 [6] | IC50 [7] | Ki [7]

CC1(C)S[C@@H]2[C@H](NC(=O)[C@H](NC(=O)N3CCNC3=O)c3ccccc3)C(=O)N2[C@H]1C(=O)O [AZLOCILLIN]
Not Active: IC50 [1] | IC50 [2] | IC50 [3] | Ki [3] | IC50 [4] | IC50 [5] | IC50 [6] | IC50 [7] | Ki [7]

CC[C@H](C)[C@H](N)C1=N[C@H](C(=O)N[C@@H](CC(C)C)C(=O)N[C@H](CCC(=O)O)C(=O)N[C@H](C(=O)N[C@H]2CCCCNC(=O)[C@H](CC(N)=O)NC(=O)[C@@H](CC(=O)O)NC(=O)[C@H](Cc3cnc[nH]3)NC(=O)[C@@H](Cc3ccccc3)NC(=O)[C@H]([C@@H](C)CC)NC(=O)[C@@H](CCCN)NC2=O)[C@@H](C)CC)CS1 [BACITRACIN] ({Ileψ(thiazoline)Cys}-L[dE]IK[dOrn]I[dF]H[dD]N; lactam 4-C)
Not Active: IC50 [1] | IC50 [2] | IC50 [3] | Ki [3] | IC50 [4] | IC50 [5] | IC50 [6] | IC50 [7] | Ki [7]

O=C1OCCN1/N=C/c1ccc([N+](=O)[O-])o1 [FURAZOLIDONE]
Not Active: IC50 [1] | IC50 [2] | IC50 [3] | Ki [3] | IC50 [4] | IC50 [5] | IC50 [6]

NCC(=O)O [GLYCINE]
Not Active: IC50 [1] | IC50 [2] | IC50 [3] | Ki [3] | IC50 [4] | IC50 [5] | IC50 [6]

O=P1(NCCCl)OCCCN1CCCl (stereo not given) [IFOSFAMIDE]
Not Active: IC50 [1] | IC50 [2] | IC50 [3] | Ki [3] | IC50 [4] | IC50 [5] | IC50 [6]
